Results published in US9993001B2, “Herbicidal composition” (ISHIHARA SANGYO KAISHA, LTD., priority 2014, dated 2018).

Tests used:
Assay type in all cases: in vivo
[1] = test system: Nepalese Smartweed (Persicaria nepalensis (Meisn.) H. Gross); test: Test Example 3: soybean field, soil treatment, metobromuron + S-metolachlor; settings: soil, read-out: Growth inhibition rate of Nepalese Smartweed (%) Measured value
Description: (§1) When the herbicidal activity in a case where two active ingredients are combined, is larger than the simple sum of the respective herbicidal activities of the two active ingredients (the expected activity), it is called a synergistic effect. The activity expected by the combination of two active ingredients can be calculated as follows (Colby S. R., “Weed”, vol. 15, p. 20-22, 1967). E=α+β−(α×β[…]) where α: growth inhibition rate when treated with x (g/ha) of herbicide X, • β: growth inhibition rate when treated with y (g/ha) of herbicide Y, • E: growth inhibition rate expected when treated with x (g/ha) of herbicide X and y (g/ha) of herbicide Y.
(§2) On the 19th day after treatment, the state of growth of barnyardgrass was visually observed and evaluated in accordance with the following standards. The growth inhibition rate (%) [measured value] and the growth inhibition rate (%) [calculated value] calculated by the Colby's method, are shown in Table 2.
Growth inhibition rate (%)=inhibition rate) (%) of 0 (equivalent to the non-treated area) to 100 (complete kill) […]
On the 50th day after treatment, the state of growth of Nepalese Smartweed (Persicaria nepalensis (Meisn.) H. Gross) which occurred naturally, was visually observed and evaluated in the same manner as in Test Example 1.

[2] = test system: Nepalese Smartweed (Persicaria nepalensis (Meisn.) H. Gross); test: Test Example 6: adzuki bean field, soil treatment, metobromuron + S-metolachlor; settings: soil, read-out: Growth inhibition rate of Nepalese Smartweed (%) Measured value
Description: as §1, §2
(§3) Growth inhibition rate (%)=inhibition rate) (%) of 0 (equivalent to the non-treated area) to 100 (complete kill)
In an adzuki bean agricultural field (9.6 square meters per one test section), predetermined amounts of SC containing metobromuron as active ingredient (same as in Test Example 1) and EC containing S-metolachlor as active ingredient (same as in Test Example 2) were diluted with water corresponding to 1,000 L per hectare and applied for soil treatment, prior to germination of adzuki bean and weeds.
On the 39th day after treatment, the state of growth of Nepalese Smartweed (Persicaria nepalensis (Meisn.) H. Gross) which occurred naturally, was visually observed and evaluated in the same manner as in Test Example 1.

[3] = test system: velvetleaf (Abutilon theophrasti MEDIC.); test: Test Example 13: pot, soil treatment, metobromuron + pyroxasulfone; settings: soil, read-out: Growth inhibition rate of velvetleaf (%) Measured value
Description: as §1, §2, §3
(§4) Soil was put into a 1/300,000 ha pot, and seeds of velvetleaf (Abutilon theophrasti MEDIC.) were sown. Prior to germination of velvetleaf, predetermined amounts of SC containing metobromuron as active ingredient (same as in Test Example 1) and WG containing pyroxasulfone as active ingredient (trade name: Sakura 850 WG, manufactured by Bayer CropScience) were diluted with water corresponding to 1,000 L per hectare and applied for soil treatment.
On the 12th day after treatment, the state of growth of velvetleaf was visually observed and evaluated in the same manner as in Test Example 1.

[4] = test system: black nightshade (Solanum nigrum L.); test: Test Example 14: pot, soil treatment, metobromuron + pyroxasulfone; settings: soil, read-out: Growth inhibition rate of black nightshade (%) Measured value
Description: as §1, §2, §3
as §4, with “black nightshade (Solanum nigrum L.)” for “velvetleaf (Abutilon theophrasti MEDIC.)”, “black nightshade,” for “velvetleaf,”, “(same as in Test Example 13)” for “(trade name: Sakura 850 WG, manufactured by Bayer CropScience)”
On the 12th day after treatment, the state of growth of black nightshade was visually observed and evaluated in the same manner as in Test Example 1.

[5] = test system: giant foxtail (Setaria faberi Herrm.); test: Test Example 16: pot, soil treatment, metobromuron + chlorpropham; settings: soil, read-out: Growth inhibition rate of giant foxtail (%) Measured value
Description: as §1, §2, §3
(§5) Soil was put into a 1/300,000 ha pot, and seeds of barnyardgrass (Echinochloa crus-galli L.) were sown. On the day after seeding, predetermined amounts of SC containing metobromuron as active ingredient (same as in Test Example 1) and EC containing chlorpropham as active ingredient (same as in Test Example 1) were diluted with water corresponding to 1,000 L per hectare and applied for soil treatment.
On the 21st day after treatment, the state of growth of barnyardgrass was visually observed and evaluated in the same manner as in Test Example 1.
The test was carried out in the same manner as in Test Example 15 except that barnyardgrass (Echinochloa crus-galli L.) was changed to giant foxtail (Setaria faberi Herrm.), to obtain the results as shown in Table 17.

[6] = test system: barnyardgrass (Echinochloa crus-galli L.); test: Test Example 18: pot, soil treatment, metobromuron + chlorpropham; settings: soil, read-out: Growth inhibition rate of barnyardgrass (%) Measured value
Description: as §1, §2, §3
Soil was put into a 1/300,000 ha pot, and seeds of barnyardgrass (Echinochloa crus-galli L.) were sown. […]
(§6) On the 26th day after treatment, the state of growth of barnyardgrass was visually observed and evaluated in the same manner as in Test Example 1.

[7] = test system: annual bluegrass (Poa annua L.); test: Test Example 19: pot, soil treatment, metobromuron + chlorpropham; settings: soil, read-out: Growth inhibition rate of annual bluegrass (%) Measured value
[8] = test system: common lambsquarters (Chenopodium album L.); test: Test Example 20: pot, soil treatment, metobromuron + chlorpropham; settings: soil, read-out: Growth inhibition rate of common lambsquarters (%) Measured value
Description: as §1, §2, §3, §5, §6
The test was carried out in the same manner as in Test Example 18 except that barnyardgrass (Echinochloa crus-galli L.) was changed to common lambsquarters (Chenopodium album L.), to obtain the results as shown in Table 21.

[9] = test system: common chickweed (Stellaria media L.); test: Test Example 25: pot, soil treatment, metobromuron + trifluralin; settings: soil, read-out: Growth inhibition rate of common chickweed (%) Measured value
[10] = test system: common lambsquarters (Chenopodium album L.); test: Test Example 30: pot, soil treatment, metobromuron + thiobencarb; settings: soil, read-out: Growth inhibition rate of common lambsquarters (%) Measured value
Description: as §1, §2, §3
(§7) Soil was put into a 1/300,000 ha pot, and seeds of common lambsquarters (Chenopodium album L.) were sown. On the day after seeding, predetermined amounts of SC containing metobromuron as active ingredient (same as in Test Example 1) and EC containing thiobencarb as active ingredient (trade name: Saturn NYUZAI, manufactured by KUMIAI CHEMICAL INDUSTRY Co., Ltd.) were diluted with water corresponding to 1,000 L per hectare and applied for soil treatment.
(§8) On the 20th day after treatment, the state of growth of common lambsquarters was visually observed and evaluated in the same manner as in Test Example 1.

[11] = test system: black nightshade (Solanum nigrum L.); test: Test Example 31: pot, soil treatment, metobromuron + thiobencarb; settings: soil, read-out: Growth inhibition rate of black nightshade (%) Measured value
Description: as §1, §2, §3, §7, §8
The test was carried out in the same manner as in Test Example 30 except that common lambsquarters (Chenopodium album L.) was changed to black nightshade (Solanum nigrum L.), to obtain the results as shown in Table 32.

[12] = test system: barnyardgrass (Echinochloa crus-galli L.); test: Test Example 32: pot, soil treatment, metobromuron + chlorpropham; settings: soil, read-out: Growth inhibition rate of barnyardgrass (%) Measured value
Description: as §1, §2, §3, §5, §6

## CON(C)C(=O)Nc1ccc(Br)cc1 [Metobromuron, 3-(4-bromophenyl)-1-methoxy-1-methylurea]
[1]
  inhibition at 1500 g/ha: 30%
[2]
  inhibition at 1000 g/ha: 35%
  inhibition at 1500 g/ha: 40%
[3]
  inhibition at 375 g/ha: 28%
  inhibition at 750 g/ha: 55%
  inhibition at 1500 g/ha: 74%
[4]
  inhibition at 375 g/ha: 64%
  inhibition at 750 g/ha: 83%
[5]
  inhibition at 1000 g/ha: 78%
[6]
  inhibition at 188 g/ha: 0%
[7]
  inhibition at 375 g/ha: 50%
[8]
  inhibition at 188 g/ha: 50%
[9]
  inhibition at 250 g/ha: 73%
[10]
  inhibition at 250 g/ha: 78%
[11]
  inhibition at 375 g/ha: 65%
  inhibition at 562.5 g/ha: 76%
[12]
  inhibition at 375 g/ha: 40%
